Assay results published in PubChem BioAssay (NCI).
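Exposure lasted 48 hours, with cells grown in 96-well plates and compounds tested at five concentrations. GI50 marks 50% less growth. TGI marks complete inhibition of growth.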

Experiments:
Experiment in all cases: NCI tumour cell line growth inhibition, 48 h
[1] = test system: LXFL 529 NSCLC
[2] = test system: HCT-116 colon
[3] = test system: SNB-78 CNS
[4] = test system: IGROV1 ovarian
[5] = test system: MALME-3M melanoma
[6] = test system: A549 NSCLC
[7] = test system: SR leukemia
[8] = test system: DU-145 prostate
[9] = test system: HS 578T breast
[10] = test system: OVCAR-3 ovarian

Row | SMILES | TGI [1] | TGI [2] | TGI [3] | TGI [4] | TGI [5] | TGI [6] | TGI [7] | GI50 [2] | GI50 [4] | GI50 [8] | TGI [8] | GI50 [5] | GI50 [9] | TGI [9] | GI50 [10] | TGI [10] | GI50 [6] | GI50 [7]
1 | CCc1cccc(C)c1NC(=O)C(=O)CC(=O)c1ccc(Cl)s1 | > 100 µM | > 100 µM | > 100 µM | > 100 µM | > 100 µM | > 100 µM | > 100 µM |  |  |  |  |  |  |  |  |  |  | 
2 | CCc1ccc(CCC(=O)Nc2ncc(Cc3ccc(Cl)cc3)s2)o1 |  | > 100 µM |  | > 100 µM | > 100 µM | > 100 µM | > 100 µM | 0.427 µM | 0.549 µM | 0.329 µM | > 100 µM | 0.466 µM | 0.3 µM | 27.9 µM | 0.248 µM | 0.682 µM | 0.496 µM | 0.419 µM
3 | COc1ccc(Cc2coc3ccccc3c2=O)cc1OC |  | > 100 µM |  | > 100 µM | > 100 µM | > 100 µM | > 100 µM |  |  |  | > 100 µM |  |  | > 100 µM |  | > 100 µM |  | 
4 | Cc1cccc2nc3ccccc3c(Nc3ccc(NS(C)(=O)=O)cc3)c12 |  | 15.9 µM |  | 38.6 µM | 19.4 µM | 12.4 µM | 6.7 µM | 3.67 µM | 4.3 µM | 3.76 µM | 22.6 µM | 4.99 µM | 8.88 µM | 31.7 µM | 14.1 µM | 37 µM | 1.88 µM | 1.51 µM
5 | CC1/C(=N\O)CC(c2ccccc2)N(C)C1c1ccccc1 (stereo not given) | > 100 µM | > 100 µM | > 100 µM | > 100 µM | > 100 µM | > 100 µM |  |  |  |  |  |  |  |  |  | > 100 µM |  | 
6 | O=C1C=CC=C/C1=C1/SC(c2ccccc2)=C(O)N1c1ccccc1 | > 100 µM | > 100 µM | > 100 µM | > 100 µM | > 100 µM | > 100 µM |  |  |  |  |  |  |  |  |  | > 100 µM |  | 
7 | CC1=C2[C@@H](CC1)[C@]1(C)O[C@@](C(C)C)(C[C@H]1OC(=O)CO)[C@H]2OC(=O)C1CC1c1ccccc1 (stereo not given in full) |  | 33.2 µM |  | 46.7 µM | 33.4 µM | 25.9 µM | 34.9 µM | 17.7 µM | 19.1 µM | 14.6 µM | 27.9 µM | 16.5 µM | 0.0681 µM | 2.38 µM | 13 µM | 26.4 µM | 11.9 µM | 10.9 µM
8 | COC(=O)[C@H](Cc1cnc[nH]1)NC(=O)[C@@H](NC(=O)Nc1cc(C(F)(F)F)cc(C(F)(F)F)c1)C(C)C |  | 40.7 µM |  | 36.1 µM | 32.2 µM | 32.7 µM | 32.8 µM | 18.9 µM | 18.1 µM | 17.8 µM | 32.7 µM | 16.9 µM | 16.8 µM | 47.6 µM | 14.7 µM | 28.3 µM | 16.7 µM | 13.2 µM
9 | COc1cc(/C=N/Nc2ncnc3c2cnn3-c2ccccc2)ccc1O |  | > 25 µM |  | > 22.8 µM | > 25 µM | > 25 µM | > 25 µM | 8.18 µM | 5.03 µM | > 19.6 µM | > 25 µM | > 25 µM | 2.18 µM | > 25 µM | 7.18 µM | > 25 µM | > 20.5 µM | 6.09 µM
10 | CN(C)C(=N/O)/C(=N\O)N(C)C | > 100 µM | > 100 µM | > 100 µM | > 100 µM | > 100 µM | > 100 µM | > 100 µM |  |  |  |  |  |  |  |  |  |  | 
11 | Nc1ccc(C2=CC(c3ccc(Cl)cc3)N3C=CSC3=N2)cc1 (stereo not given) |  | 3.2 µM |  | 6.69 µM | 47.8 µM | 53.4 µM | 5.51 µM | 1.66 µM | 2.53 µM | 5.11 µM | 16.9 µM | 18.1 µM | 23.5 µM | > 100 µM | 2.79 µM | 7.43 µM | 3.68 µM | 2.1 µM
12 | CN(c1ccc(C(=O)c2ccc(N(C)S(C)(=O)=O)cc2)cc1)S(C)(=O)=O | > 100 µM | > 100 µM | > 100 µM |  | > 100 µM | > 100 µM | > 100 µM |  |  |  |  |  |  |  |  |  |  | 
13 | NCCCC[C@@H]1NC(=O)[C@H](CC(=O)O)NC(=O)CNC(=O)[C@H](CCCN=C(N)N)NC(=O)[C@@H](N)CSSC[C@@H](C(=O)O)NC(=O)[C@H](CC(=O)O)NC(=O)[C@@H]2CCCN2C(=O)CNC1=O |  | > 100 µM |  | > 100 µM | > 100 µM | > 100 µM | > 100 µM | > 100 µM | > 100 µM | > 100 µM | > 100 µM | > 100 µM | > 100 µM | > 100 µM | > 100 µM | > 100 µM | > 100 µM | > 100 µM
14 | O=C(CCCN1CCC(O)(c2ccc(Cl)cc2)CC1)c1ccc(F)cc1 |  | 33.6 µM |  | > 100 µM | 36.2 µM | > 100 µM | > 100 µM |  |  |  | > 100 µM |  |  | 65.9 µM |  | 45.2 µM |  | 
15 | NC(=O)c1cc([N+](=O)[O-])c(Cl)c([N+](=O)[O-])c1Cl |  | 0.582 µM |  | 7.73 µM | 4.52 µM | 3.8 µM | 4.8 µM | 0.228 µM | 0.625 µM | 1.55 µM | 2.88 µM | 1.74 µM | 1.98 µM | 4.98 µM | 1.14 µM | 2.35 µM | 1.88 µM | 0.516 µM
16 | COc1cccc(CC(C)=C(c2ccc(OCCN3CCCCC3)cc2)c2ccc(OCCN3CCCCC3)cc2)c1 |  | 4.26 µM |  | 3.99 µM | 3.81 µM | 4.35 µM | 1.2 µM | 2.25 µM | 1.89 µM | 2.11 µM | 4.26 µM | 1.84 µM | 1.52 µM | 4.02 µM | 1.95 µM | 4.04 µM | 2.2 µM | 0.392 µM
17 | CC(C)(C)c1ccc(Oc2ccc(N)cn2)cc1 |  | > 100 µM |  | > 100 µM | > 100 µM | > 100 µM | > 100 µM | 47.5 µM | > 100 µM | 38.2 µM | > 100 µM | 39.7 µM | 43.9 µM | > 100 µM | 26 µM | > 100 µM | 9.19 µM | 30 µM
